Reference: US9808504B2, “Immunogenic epitopes as targets for universal cancer vaccines” (Yale University, priority 2009, dated 2017)

Tested on: freshly isolated human PBMCs
Test: Detection of OCT4 reactive T cells in fresh PBMCs: IP10 in culture supernatant by Luminex
Assay type: cell-based
Conditions: PBMCs of 10 healthy donors cultured with individual peptides, 48 h

Sequence	reactivity to individual peptides (fine specificity)
NRVRGNLENLFLQCP [compound 65]	hot-spots of promiscuous reactivity
KRKRTSIENRVRGNL [compound 63]	hot-spots of promiscuous reactivity
NMCKLRPLLQKWV [compound 54]	hot-spots of promiscuous reactivity
RQKGKRSSSDYAQR [compound 77]	hot-spots of promiscuous reactivity
DVVRVWFCNRRQKGK [compound 74]	hot-spots of promiscuous reactivity
CKLRPLLQKWVEEA [compound 55]	hot-spots of promiscuous reactivity
VWFCNRRQKGKRSSS [compound 75]	hot-spots of promiscuous reactivity
LSFKNMCKLRPLLQK [compound 53]	hot-spots of promiscuous reactivity
NLFLQCPKPTLQQIS [compound 67]	hot-spots of promiscuous reactivity
EICKAETLVQARKRK [compound 60]	hot-spots of promiscuous reactivity
LQQISHIAQQLGLEK [compound 70]	hot-spots of promiscuous reactivity
VQARKRKRTSIENRV [compound 62]	hot-spots of promiscuous reactivity
AETLVQARKRKRTSI [compound 61]	hot-spots of promiscuous reactivity
GLEKDVVRVWFCNRR [compound 73]	hot-spots of promiscuous reactivity
NRRQKGKRSSSDYA [compound 76]	hot-spots of promiscuous reactivity
SHIAQQLGLEKDVVR [compound 71]	hot-spots of promiscuous reactivity
AQQLGLEKDVVRVWF [compound 72]	hot-spots of promiscuous reactivity
